Reference: US20260062412A1, “NITROGEN-CONTAINING HETEROCYCLIC COMPOUND HAVING MYT1 INHIBITORY ACTIVITY” (CHUGAI SEIYAKU KABUSHIKI KAISHA, priority 2023, published 2026)
Structures can show the parent of a compound that is named as a salt.

molecular target: MYT1 protein (Homo sapiens (Human), UniProt Q99640); assay: Test for binding to ATP binding site of MYT1 (Kinase Tracer 178 / Eu-Anti-GST antibody TR-FRET); settings: ATP binding site of MYT1, 30 minutes at room temperature
Sequence (Q99640 whole entry): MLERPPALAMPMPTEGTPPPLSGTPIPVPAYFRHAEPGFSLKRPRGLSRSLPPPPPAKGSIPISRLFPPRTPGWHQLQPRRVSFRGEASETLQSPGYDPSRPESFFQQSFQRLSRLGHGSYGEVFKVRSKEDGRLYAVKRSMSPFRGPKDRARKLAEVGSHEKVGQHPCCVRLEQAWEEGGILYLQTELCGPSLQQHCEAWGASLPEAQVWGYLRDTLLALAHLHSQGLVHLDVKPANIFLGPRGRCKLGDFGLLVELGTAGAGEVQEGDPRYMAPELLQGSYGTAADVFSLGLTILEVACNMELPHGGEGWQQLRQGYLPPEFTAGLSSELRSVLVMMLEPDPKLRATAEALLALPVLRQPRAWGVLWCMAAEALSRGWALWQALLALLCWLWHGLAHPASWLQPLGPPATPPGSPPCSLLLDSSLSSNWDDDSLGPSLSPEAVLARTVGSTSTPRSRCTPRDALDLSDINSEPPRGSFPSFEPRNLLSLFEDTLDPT

| IC50 | SMILES |
| --- | --- |
| 9.3 nM | Cc1cc2c(-c3cc(F)c(F)c4[nH]ncc34)c(N)c(=O)[nH]c2c2cc(F)cnc12 [Compound F6, 3-Amino-4-(6,7-difluoro-1H-indazol-4-yl)-9-fluoro-6-methyl-1H-1,7-phenanthrolin-2-one] |
| 16 nM | Nc1c(-c2ccc(F)c3[nH]ncc23)c2cc(Br)c3nccnc3c2[nH]c1=O [Compound G1, 8-Amino-5-bromo-7-(7-fluoro-1H-indazol-4-yl)-10H-pyrido[2,3-f]quinoxalin-9-one] |
| 270 nM | O=c1[nH]c2c(cc(Br)c3nccnc32)c(-c2ccc(F)c3[nH]ncc23)c1Cl [Compound G2, 5-Bromo-8-chloro-7-(7-fluoro-1H-indazol-4-yl)-10H-pyrido[2,3-f]quinoxalin-9-one] |
| 7.9 nM | Cc1cc2c(-c3ccc(F)c4[nH]ncc34)c(N)c(=O)[nH]c2c2nccnc12 [Compound G3, 8-Amino-7-(7-fluoro-1H-indazol-4-yl)-5-methyl-10H-pyrido[2,3-f]quinoxalin-9-one] |
| 3.2 nM | Nc1c(-c2ccc(F)c3[nH]ncc23)c2cc(C3CC3)c3nccnc3c2[nH]c1=O [Compound G4, 8-Amino-5-cyclopropyl-7-(7-fluoro-1H-indazol-4-yl)-10H-pyrido[2,3-f]quinoxalin-9-one] |
| 9.3 nM | CS(=O)(=O)Nc1cc2c(-c3ccc(F)c4[nH]ncc34)c(N)c(=O)[nH]c2c2nccnc12 [Compound G5, N-[8-amino-7-(7-fluoro-1H-indazol-4-yl)-9-oxo-10H-pyrido[2,3-f]quinoxalin-5-yl]methanesulfonamide] |
| 7.4 nM | Nc1c(-c2ccc(F)c3[nH]ncc23)c2cc(NS(=O)(=O)C3CC3)c3nccnc3c2[nH]c1=O [Compound G6, N-[8-amino-7-(7-fluoro-1H-indazol-4-yl)-9-oxo-10H-pyrido[2,3-f]quinoxalin-5-yl]cyclopropanesulfonamide] |
| 2.5 nM | CN1CCN(c2cc3c(-c4ccc(F)c5[nH]ncc45)c(N)c(=O)[nH]c3c3nccnc23)CC1 [Compound G7, 8-Amino-7-(7-fluoro-1H-indazol-4-yl)-5-(4-methylpiperazin-1-yl)-10H-pyrido[2,3-f]quinoxalin-9-one] |
| 1.4 nM | CC(=O)Nc1cc2c(-c3ccc(F)c4[nH]ncc34)c(N)c(=O)[nH]c2c2nccnc12 [Compound G8, N-[8-amino-7-(7-fluoro-1H-indazol-4-yl)-9-oxo-10H-pyrido[2,3-f]quinoxalin-5-yl]acetamide] |
| 4.4 nM | CC(C)Nc1cc2c(-c3ccc(F)c4[nH]ncc34)c(N)c(=O)[nH]c2c2nccnc12 [Compound G9, 8-Amino-7-(7-fluoro-1H-indazol-4-yl)-5-(propan-2-ylamino)-10H-pyrido[2,3-f]quinoxalin-9-one] |
| 2.2 nM | COc1cc2c(-c3ccc(F)c4[nH]ncc34)c(N)c(=O)[nH]c2c2nccnc12 [Compound G10, 8-Amino-7-(7-fluoro-1H-indazol-4-yl)-5-methoxy-10H-pyrido[2,3-f]quinoxalin-9-one] |
| 2.5 nM | Nc1c(-c2ccc(F)c3[nH]ncc23)c2cc(OCC3CC3)c3nccnc3c2[nH]c1=O [Compound G11, 8-Amino-5-(cyclopropylmethoxy)-7-(7-fluoro-1H-indazol-4-yl)-10H-pyrido[2,3-f]quinoxalin-9-one] |
| 0.95 nM | N#C[C@H]1C[C@H](Oc2cc3c(-c4ccc(F)c5[nH]ncc45)c(N)c(=O)[nH]c3c3nccnc23)C1 [Compound G12, (1r,3r)-3-[[8-Amino-7-(7-fluoro-1H-indazol-4-yl)-9-oxo-10H-pyrido[2,3-f]quinoxalin-5-yl]oxy]cyclobutane-1-carbonitrile] |
| 0.49 nM | CC[C@H](C)Oc1cc2c(-c3ccc(F)c4[nH]ncc34)c(N)c(=O)[nH]c2c2nccnc12 [Compound G13, 8-Amino-5-[(2S)-butan-2-yl]oxy-7-(7-fluoro-1H-indazol-4-yl)-10H-pyrido[2,3-f]quinoxalin-9-one] |
| 0.69 nM | CC[C@@H](C)Oc1cc2c(-c3ccc(F)c4[nH]ncc34)c(N)c(=O)[nH]c2c2nccnc12 [Compound G14, 8-Amino-5-[(2R)-butan-2-yl]oxy-7-(7-fluoro-1H-indazol-4-yl)-10H-pyrido[2,3-f]quinoxalin-9-one] |
| 1.6 nM | CC(C)Oc1cc2c(-c3ccc(F)c4[nH]ncc34)c(N)c(=O)[nH]c2c2nccnc12 [Compound G15, 8-Amino-7-(7-fluoro-1H-indazol-4-yl)-5-propan-2-yloxy-10H-pyrido[2,3-f]quinoxalin-9-one] |
| 0.85 nM | Nc1c(-c2ccc(F)c3[nH]ncc23)c2cc(O[C@H]3C[C@@H](F)C3)c3nccnc3c2[nH]c1=O [Compound G17, 8-Amino-5-((1s,3s)-3-fluorocyclobutyl)oxy-7-(7-fluoro-1H-indazol-4-yl)-10H-pyrido[2,3-f]quinoxalin-9-one] |
| 0.79 nM | Nc1c(-c2ccc(F)c3[nH]ncc23)c2cc(OCCC(F)F)c3nccnc3c2[nH]c1=O [Compound G18, 8-Amino-5-(3,3-difluoropropoxy)-7-(7-fluoro-1H-indazol-4-yl)-10H-pyrido[2,3-f]quinoxalin-9-one] |
| 6.2 nM | Nc1c(-c2ccc(F)c3[nH]ncc23)c2cc(Br)c3cnsc3c2[nH]c1=O [Compound H1, 7-Amino-4-bromo-6-(7-fluoro-1H-indazol-4-yl)-9H-[1,2]thiazolo[4,5-h]quinolin-8-one] |
| 1.8 nM | Cc1cc2c(-c3ccc(F)c4[nH]ncc34)c(N)c(=O)[nH]c2c2sncc12 [Compound H2, 7-Amino-6-(7-fluoro-1H-indazol-4-yl)-4-methyl-9H-[1.2]thiazolo[4,5-h]quinolin-8-one] |

| IC50 | SMILES |
| --- | --- |
| 33 nM | Cn1ncc2c(Br)cc3c(-c4ccc(F)c5[nH]ncc45)c(N)c(=O)[nH]c3c21 [Compound I1, 7-Amino-4-bromo-6-(7-fluoro-1H-indazol-4-yl)-1-methyl-9H-pyrazolo[4,3-h]quinolin-8-one] |
| 16 nM | Cc1cc2c(-c3ccc(F)c4[nH]ncc34)c(N)c(=O)[nH]c2c2c1cnn2C [Compound I2, 7-Amino-6-(7-fluoro-1H-indazol-4-yl)-1,4-dimethyl-9H-pyrazolo[4,3-h]quinolin-8-one] |
| 8 nM | Cn1ncc2c(C3CC3)cc3c(-c4ccc(F)c5[nH]ncc45)c(N)c(=O)[nH]c3c21 [Compound I3, 7-Amino-4-cyclopropyl-6-(7-fluoro-1H-indazol-4-yl)-1-methyl-9H-pyrazolo[4,3-h]quinolin-8-one] |
| 7.3 nM | Nc1c(-c2ccc(F)c3[nH]ncc23)c2cc(Br)c3cncnc3c2[nH]c1=O [Compound J1, 8-Amino-5-bromo-7-(7-fluoro-1H-indazol-4-yl)-10H-pyrido[3,2-h]quinazolin-9-one] |
| 3.1 nM | Cc1cc2c(-c3ccc(F)c4[nH]ncc34)c(N)c(=O)[nH]c2c2ncncc12 [Compound J2, 8-Amino-7-(7-fluoro-1H-indazol-4-yl)-5-methyl-10H-pyrido[3,2-h]quinazolin-9-one] |
| 3.5 nM | Nc1c(-c2ccc(F)c3[nH]ncc23)c2cc(C3CC3)c3cncnc3c2[nH]c1=O [Compound J3, 8-Amino-5-cyclopropyl-7-(7-fluoro-1H-indazol-4-yl)-10H-pyrido[3,2-h]quinazolin-9-one] |
| 1.7 nM | Nc1c(-c2ccc(F)c3[nH]ncc23)c2cc(Br)c3ncsc3c2[nH]c1=O [Compound K1, 7-Amino-4-bromo-6-(7-fluoro-1H-indazol-4-yl)-9H-[1,3]thiazolo[4,5-h]quinolin-8-one] |
| 1.2 nM | Cc1cc2c(-c3ccc(F)c4[nH]ncc34)c(N)c(=O)[nH]c2c2scnc12 [Compound K2, 7-Amino-6-(7-fluoro-1H-indazol-4-yl)-4-methyl-9H-[1,3]thiazolo[4,5-h]quinolin-8-one] |
| 50 nM | Nc1c(-c2ccc(F)c3[nH]ncc23)c2cc(C3CC3)c3ncsc3c2[nH]c1=O [Compound K3, 7-Amino-4-cyclopropyl-6-(7-fluoro-1H-indazol-4-yl)-9H-[1,3]thiazolo[4,5-h]quinolin-8-one] |
| 3 nM | Nc1c(-c2ccc(F)c3[nH]ncc23)c2cc(Br)c3ccsc3c2[nH]c1=O [Compound L1, 7-Amino-4-bromo-6-(7-fluoro-1H-indazol-4-yl)-9H-thieno[3,2-h]quinolin-8-one] |
| 1.8 nM | Cc1cc2c(-c3ccc(F)c4[nH]ncc34)c(N)c(=O)[nH]c2c2sccc12 [Compound L2, 7-Amino-6-(7-fluoro-1H-indazol-4-yl)-4-methyl-9H-thieno[3,2-h]quinolin-8-one] |
| 10 nM | Cn1cnc2c3[nH]c(=O)c(N)c(-c4ccc(F)c5[nH]ncc45)c3cc(Br)c21 [Compound M1, 7-Amino-4-bromo-6-(7-fluoro-1H-indazol-4-yl)-3-methyl-9H-imidazo[4,5-h]quinolin-8-one] |
| 14 nM | Cc1cc2c(-c3ccc(F)c4[nH]ncc34)c(N)c(=O)[nH]c2c2ncn(C)c12 [Compound M2, 7-Amino-6-(7-fluoro-1H-indazol-4-yl)-3,4-dimethyl-9H-imidazo[4,5-h]quinolin-8-one] |
| 99 nM | Cn1cnc2c3[nH]c(=O)c(N)c(-c4ccc(F)c5[nH]ncc45)c3ccc21 [Compound M3, 7-Amino-6-(7-fluoro-1H-indazol-4-yl)-3-methyl-9H-imidazo[4,5-h]quinolin-8-one] |
| 5.3 nM | Nc1c(-c2ccc(F)c3[nH]ncc23)c2cc(Br)c3scnc3c2[nH]c1=O [Compound N1, 7-Amino-4-bromo-6-(7-fluoro-1H-indazol-4-yl)-9H-[1,3]thiazolo[5,4-h]quinolin-8-one] |
| 13 nM | Cc1nccc2c1c(Br)cc1c(-c3ccc(F)c4[nH]ncc34)c(N)c(=O)[nH]c12 [Compound P2, 3-Amino-6-bromo-4-(7-fluoro-1H-indazol-4-yl)-7-methyl-1H-1,8-phenanthrolin-2-one] |
| 12 nM | Nc1c(-c2ccc(F)c3[nH]ncc23)c2cc(Br)c3cnccc3c2[nH]c1=O [Compound P3, 3-Amino-6-bromo-4-(7-fluoro-1H-indazol-4-yl)-1H-1,8-phenanthrolin-2-one] |
| 3.9 nM | Nc1c(-c2cccc(O)c2)c2ccc3cnccc3c2[nH]c1=O [Compound P5, 3-Amino-4-(3-hydroxyphenyl)-1H-1,8-phenanthrolin-2-one; hydrobromide] |
| 3.4 nM | Nc1c(-c2ccc(F)c3[nH]ncc23)c2cnc3ccccc3c2[nH]c1=O [Compound R1, 3-Amino-4-(7-fluoro-1H-indazol-4-yl)-1H-benzo[h][1,6]naphthyridin-2-one] |
